Experimental data: ChEMBL document CHEMBL3507680, “University of Dundee, Gates Library screen for HepG2 cell viability”

Assay: Human HepG2 cell viability assay in 384 well format
Assay type: toxicity, cell-based
Parameters: dose 125 nL, time 70.5 hour; concentration not given beside the values
Conditions: HepG2 cells, read-out: Inhibition

Compared with `O=C1CN(C(=O)C2CN(c3cccc(F)c3)CCO2)CCN1` (configuration not stated), `CC(C)N1CC2(CCC1=O)CCN(C(=O)c1cc(F)ccc1Cl)CC2` is higher in cytotoxicity at 70.5 h: -5.92% for the first, -5.5% for the second.

Going from `CC(C)Oc1ccc(NCc2ccc([S+](C)[O-])cc2)c(F)c1` (configuration not stated) to `COc1ncc(NS(=O)(=O)c2ccc(F)c(F)c2)c(OC)n1`, the cytotoxicity at 70.5 h falls from 7.01% to -1.82%.

Going from `CN(Cc1nnc(C2CC2)n1C)C(=O)c1ccnc(OC2CCC2)c1` to `O=C(c1ccsc1)N1CCC(c2nnc(C3CC3)o2)CC1`, the cytotoxicity at 70.5 h rises from -10.6% to 28.3%.

Compared with `CCOc1cccc2c1OCC(C(=O)NS(=O)(=O)c1c(C)noc1C)=C2`, `CCc1nc(NS(=O)(=O)c2ccc(F)cc2C)no1` is lower in cytotoxicity at 70.5 h: -2.53% for the first, -5.01% for the second.

Going from `Cc1cc(N2CCCC(O)CC2)n2nc(C)c(C)c2n1` (configuration not stated) to `Cc1cc(C(=O)N2CCc3nc(N4CCCC4)nc(C)c3CC2)c(C)o1`, the cytotoxicity at 70.5 h falls from 1.18% to -7.18%.

Going from `Cc1ccc(C(=O)N2CCCCC2CNC(N)=O)cc1F` (configuration not stated) to `NC(=O)NCC1CCCCN1C(=O)c1ccc(Cl)s1` (configuration not stated), the cytotoxicity at 70.5 h falls from 0.819% to -8.02%.

First: CCc1ncc(C(=O)N2CCN(c3cnn(C)c(=O)c3)CC2)cn1
Second: COc1ccnc(N2CCN(C(=O)NCc3ccc(C)s3)CC2)n1
The cytotoxicity at 70.5 h of the first is lower: -5.02% for the first, 1.2% for the second.

Compared with `CN(C)CCN1CCN(CC2CC2)c2ncccc2C1`, `CC(C)(C)CN1CCN(CC2CC2)C(CCO)C1` (configuration not stated) is higher in cytotoxicity at 70.5 h: -3.26% for the first, -0.19% for the second.

First: O=C1CC(c2ccccc2)C2(CCN(CC3CC3)CC2)N1 (configuration not stated)
Second: Cc1ccc(CN2CCC3(CC2)CN(c2ccccc2)C(=O)CO3)o1
The cytotoxicity at 70.5 h of the first is lower: -5.14% for the first, 23.7% for the second.

Going from `O=C(NCc1cccnc1OCC(F)(F)F)N1CCOCC1` to `COC[C@H]1CCC[C@]12CN(C(=O)NCc1ccccc1)CCO2`, the cytotoxicity at 70.5 h falls from 7.44% to -16.8%.

Going from `Cc1cc(CCCC(=O)NC2CCN(C)C2=O)c(C)s1` (configuration not stated) to `CCCc1nc(C)c(C(=O)NC2CCN(CC(N)=O)CC2)s1`, the cytotoxicity at 70.5 h falls from -9.64% to -11.5%.

Compared with `CC(C)COC(=O)N1CCCN(Cc2nnc(C(C)(C)C)o2)CC1`, `CC(C)c1cc(CN2CCC(N)CC2)no1` is lower in cytotoxicity at 70.5 h: -4.02% for the first, -6.06% for the second.

Compared with `CC(=O)NCc1cc2n(n1)CCN(Cc1cccc(Cl)c1F)C2`, `CN1CC2(CCN(Cc3cccc(C#N)c3)CC2)CC1=O` is lower in cytotoxicity at 70.5 h: 36.9% for the first, 20.6% for the second.

Compared with `CN(C)c1cc(CNC(=O)Nc2nncs2)ccn1`, `COc1ccc(N2CCCC3(C2)CN(c2nncs2)CCO3)cc1` (configuration not stated) is higher in cytotoxicity at 70.5 h: -0.639% for the first, 1.09% for the second.

Compared with `Cc1cnn(C2CCCN(C(=O)c3ccc(-n4cccn4)nc3)C2)c1` (configuration not stated), `Cc1cnn(CC2CCCCN2C(=O)c2ccc3c(c2)COC3)c1` (configuration not stated) is higher in cytotoxicity at 70.5 h: -11.3% for the first, 4.39% for the second.

Compared with `O=S(=O)(NCC1CCOc2ccccc2C1)N1CCOCC1` (configuration not stated), `O=C(CCC(=O)N1CCc2ccccc2C1)c1cccs1` is higher in cytotoxicity at 70.5 h: -14.9% for the first, 2.72% for the second.

First: COc1cc(C)ccc1OCc1nc(C(=O)N2CCC(C)CC2)co1
Second: COc1cc(C(C)=O)ccc1OC12CCCN(CC1)C2 (configuration not stated)
The cytotoxicity at 70.5 h of the first is lower: -2.55% for the first, 12.8% for the second.

First: CCn1cc2c(n1)C(COC)CN(C(=O)CCOc1ccccc1)C2 (configuration not stated)
Second: CCOCC(=O)N1CCC2(CC1)CN(Cc1cccnc1)C(=O)CO2
The cytotoxicity at 70.5 h of the first is lower: -12.3% for the first, -9.22% for the second.

Compared with `CC(C1CC1)N(C)Cc1nnc(-c2ccco2)o1` (configuration not stated), `CC(=O)N(Cc1noc(C)n1)C1CCN(Cc2cnc(C)s2)C1` (configuration not stated) is lower in cytotoxicity at 70.5 h: 1.08% for the first, -4.39% for the second.

Compared with `Cc1nc(C2CCCN2CC(=O)Nc2c(C)n[nH]c2C)no1` (configuration not stated), `Cc1cn[nH]c1C1COCCN1Cc1c[nH]cn1` (configuration not stated) is lower in cytotoxicity at 70.5 h: 39% for the first, 4.32% for the second.

Compared with `O=C(CC1CCN(CCN2CCCCC2)CC1)N1CCOCC1`, `Cc1nsc(NC(=O)NC2(CN3CCCCC3)CCCCC2)n1` is higher in cytotoxicity at 70.5 h: -9.66% for the first, -9.47% for the second.

First: O=C(NCC1CC1)C1CN(C(=O)NC2CCCC2)Cc2cncn2C1 (configuration not stated)
Second: COc1nn(C)c2c1CCCN(C(=O)c1cscn1)C2
The cytotoxicity at 70.5 h of the first is lower: -6.07% for the first, 2.23% for the second.

First: OC(COCc1cccs1)Cn1cc(-n2cccc2)cn1 (configuration not stated)
Second: Fc1cccc(F)c1Cn1c(C2CCCNC2)cc2cccnc21 (configuration not stated)
The cytotoxicity at 70.5 h of the first is higher: 2.56% for the first, -5.53% for the second.

With `CCCc1cc(NC2CCc3nc(CC)nn3C2)n2ncnc2n1` (configuration not stated) the cytotoxicity at 70.5 h was -100%.
